Assay results reported in paper PMC11237586, “4′-Fluorouridine inhibits alphavirus replication and infection in vitro and in vivo” (mBio, 2024).

Key:
[1] = target: CHIKV nsP4 (RdRp) with SFV P123, mixed trans-replicase (Chikungunya virus strain S27-African prototype, UniProt Q8JUX6); experiment: cell-based
[2] = target: SFV nsP4 (RdRp) with SFV P123, trans-replicase (Semliki Forest virus, UniProt P08411); experiment: trans-replicase Gaussia luciferase reporter assay in transfected U-2 OS cells; format: cell-based
Sequence of SFV nsP4 (RdRp) with SFV P123, trans-replicase (P08411 1-1818): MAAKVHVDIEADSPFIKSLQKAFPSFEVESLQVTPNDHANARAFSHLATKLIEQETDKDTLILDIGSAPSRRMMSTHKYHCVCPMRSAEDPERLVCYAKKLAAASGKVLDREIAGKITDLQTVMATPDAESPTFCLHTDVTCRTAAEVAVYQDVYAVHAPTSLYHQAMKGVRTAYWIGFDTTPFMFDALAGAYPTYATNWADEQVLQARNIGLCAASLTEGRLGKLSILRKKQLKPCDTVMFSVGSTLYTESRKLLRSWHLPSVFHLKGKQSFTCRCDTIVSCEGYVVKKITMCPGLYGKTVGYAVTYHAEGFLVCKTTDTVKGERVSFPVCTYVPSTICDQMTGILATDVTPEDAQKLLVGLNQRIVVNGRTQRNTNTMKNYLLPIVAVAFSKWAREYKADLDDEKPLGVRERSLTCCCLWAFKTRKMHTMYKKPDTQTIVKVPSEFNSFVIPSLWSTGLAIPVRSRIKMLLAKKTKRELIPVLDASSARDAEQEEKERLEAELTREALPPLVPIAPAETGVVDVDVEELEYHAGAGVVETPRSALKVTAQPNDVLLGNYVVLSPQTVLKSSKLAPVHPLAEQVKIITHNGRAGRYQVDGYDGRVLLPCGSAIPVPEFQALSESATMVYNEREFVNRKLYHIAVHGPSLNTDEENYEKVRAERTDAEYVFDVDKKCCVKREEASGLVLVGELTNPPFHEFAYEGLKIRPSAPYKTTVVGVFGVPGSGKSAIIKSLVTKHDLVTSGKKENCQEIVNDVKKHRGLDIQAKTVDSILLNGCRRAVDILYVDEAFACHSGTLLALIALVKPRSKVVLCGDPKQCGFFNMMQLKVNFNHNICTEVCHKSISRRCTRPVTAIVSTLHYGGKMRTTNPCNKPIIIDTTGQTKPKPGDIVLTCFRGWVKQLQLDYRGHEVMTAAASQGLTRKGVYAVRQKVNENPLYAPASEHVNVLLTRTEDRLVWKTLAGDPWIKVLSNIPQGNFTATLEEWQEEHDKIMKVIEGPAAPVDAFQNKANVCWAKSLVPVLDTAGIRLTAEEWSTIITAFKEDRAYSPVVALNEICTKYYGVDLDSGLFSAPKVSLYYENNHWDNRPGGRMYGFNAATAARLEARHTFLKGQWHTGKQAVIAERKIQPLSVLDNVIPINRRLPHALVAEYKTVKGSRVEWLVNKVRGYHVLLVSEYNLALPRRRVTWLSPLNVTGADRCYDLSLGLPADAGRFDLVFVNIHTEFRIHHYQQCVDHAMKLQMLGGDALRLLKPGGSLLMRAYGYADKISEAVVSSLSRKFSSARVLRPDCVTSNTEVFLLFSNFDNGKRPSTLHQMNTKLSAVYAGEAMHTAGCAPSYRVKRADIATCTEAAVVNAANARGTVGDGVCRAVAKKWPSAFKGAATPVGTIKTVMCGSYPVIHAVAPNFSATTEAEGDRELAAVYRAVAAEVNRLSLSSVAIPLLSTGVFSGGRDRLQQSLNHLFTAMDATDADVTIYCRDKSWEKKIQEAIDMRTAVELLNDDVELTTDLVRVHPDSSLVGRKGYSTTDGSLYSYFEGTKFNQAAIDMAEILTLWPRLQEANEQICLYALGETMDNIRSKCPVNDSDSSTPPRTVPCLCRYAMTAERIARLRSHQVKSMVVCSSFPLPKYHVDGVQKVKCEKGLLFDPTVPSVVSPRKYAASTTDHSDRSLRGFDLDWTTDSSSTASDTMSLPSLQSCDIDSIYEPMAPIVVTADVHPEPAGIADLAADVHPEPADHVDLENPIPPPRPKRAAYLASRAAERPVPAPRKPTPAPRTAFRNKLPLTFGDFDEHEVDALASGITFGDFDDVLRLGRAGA
Sequence of SFV nsP4 (RdRp) with SFV P123, trans-replicase (P08411 1819-2431): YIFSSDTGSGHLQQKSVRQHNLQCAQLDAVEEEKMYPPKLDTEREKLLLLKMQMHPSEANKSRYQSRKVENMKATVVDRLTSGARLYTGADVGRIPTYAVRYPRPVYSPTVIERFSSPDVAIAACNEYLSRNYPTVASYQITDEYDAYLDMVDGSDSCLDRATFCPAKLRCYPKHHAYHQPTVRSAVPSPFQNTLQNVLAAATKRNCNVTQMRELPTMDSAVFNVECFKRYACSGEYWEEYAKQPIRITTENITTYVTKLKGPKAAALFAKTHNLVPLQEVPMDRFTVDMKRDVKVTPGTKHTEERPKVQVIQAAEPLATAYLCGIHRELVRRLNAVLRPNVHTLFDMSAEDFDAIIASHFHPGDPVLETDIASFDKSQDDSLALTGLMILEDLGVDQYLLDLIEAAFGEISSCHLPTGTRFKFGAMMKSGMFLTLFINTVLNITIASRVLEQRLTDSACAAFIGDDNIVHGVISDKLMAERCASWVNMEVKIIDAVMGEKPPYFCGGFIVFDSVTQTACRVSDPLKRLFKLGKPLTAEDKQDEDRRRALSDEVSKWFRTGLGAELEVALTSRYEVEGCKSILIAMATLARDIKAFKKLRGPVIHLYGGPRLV

Sequence of CHIKV nsP4 (RdRp) with SFV P123, mixed trans-replicase (Q8JUX6 1864-2474): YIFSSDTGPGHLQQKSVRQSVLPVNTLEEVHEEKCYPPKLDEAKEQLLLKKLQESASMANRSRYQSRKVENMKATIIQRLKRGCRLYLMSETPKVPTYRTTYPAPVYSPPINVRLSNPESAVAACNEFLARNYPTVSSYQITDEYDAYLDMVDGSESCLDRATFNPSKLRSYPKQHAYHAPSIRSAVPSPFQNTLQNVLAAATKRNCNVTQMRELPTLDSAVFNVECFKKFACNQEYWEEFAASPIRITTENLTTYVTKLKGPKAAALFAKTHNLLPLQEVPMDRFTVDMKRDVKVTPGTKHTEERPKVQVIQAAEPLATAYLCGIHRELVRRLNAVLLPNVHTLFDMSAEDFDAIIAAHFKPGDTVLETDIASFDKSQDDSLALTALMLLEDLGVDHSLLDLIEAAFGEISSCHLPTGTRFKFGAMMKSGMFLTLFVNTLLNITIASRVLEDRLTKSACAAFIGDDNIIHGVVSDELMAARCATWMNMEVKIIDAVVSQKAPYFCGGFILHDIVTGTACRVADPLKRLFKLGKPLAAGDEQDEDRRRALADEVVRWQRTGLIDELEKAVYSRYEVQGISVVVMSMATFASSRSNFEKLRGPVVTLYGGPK
Sequence of CHIKV nsP4 (RdRp) with SFV P123, mixed trans-replicase (P08411 1-1818, further chain): as the sequence (P08411 1-1818) above

O=c1ccn([C@@H]2O[C@](F)(CO)[C@@H](O)[C@H]2O)c(=O)[nH]1 [4′-fluorouridine] showed an EC50 [1] of 640 nM and an EC50 [2] of 2100 nM.
